The values that follow come from patent US9067898B1, “Isothiazole derivatives as GPR120 agonists for the treatment of type II diabetes” (Janssen Pharmaceutica NV, priority 2014, dated 2015).

This assay concerns the target T1, Human GPR120 short form (Homo sapiens, UniProt Q5NUL3).
T1 construct: expressed in transfected cells
T1 sequence (Q5NUL3 1-361): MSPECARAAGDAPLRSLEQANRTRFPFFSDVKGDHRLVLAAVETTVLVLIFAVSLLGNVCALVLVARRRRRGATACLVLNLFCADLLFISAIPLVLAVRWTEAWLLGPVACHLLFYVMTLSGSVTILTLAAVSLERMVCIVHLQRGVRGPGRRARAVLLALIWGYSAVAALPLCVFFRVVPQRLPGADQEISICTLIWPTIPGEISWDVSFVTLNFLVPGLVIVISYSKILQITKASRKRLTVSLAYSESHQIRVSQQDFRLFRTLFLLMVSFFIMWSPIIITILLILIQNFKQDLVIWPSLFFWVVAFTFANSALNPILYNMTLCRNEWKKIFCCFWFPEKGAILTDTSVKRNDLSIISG
The experiment in a line: Human GPR120 calcium flux assay (FLIPR), Procedure Calcium A. The class given is cell-based. To be noted: HEK-293 cells expressing human GPR120 short form, 2500 cells/well; read-out: GPR120 Ca2+ Assay A EC50. In outline:
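HEK293 cells stably expressing the short isoform (NM_001195755.1), 2500/well, starved 1 h, then loaded with Fluo-4 NW plus probenecid (30 min 37 °C, 15 min RT). Compound solutions 0.012–100 μM, 0.2% DMSO final; FLIPR read 300 s after addition. EC50 from Fmax−Fmin fitted to variable-slope sigmoid (Hill <2).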
Consider `CCc1cc(CCC(=O)O)ccc1OCc1c(-c2ccc(Cl)cc2)nsc1C(F)(F)F` [Cpd 162, 3-(4-[[3-(4-chlorophenyl)-5-(trifluoromethyl)-1,2-thiazol-4-yl]methoxy]-3-ethylphenyl)propanoic acid], for which the EC50 came to 202 nM.
For `Cc1ccccc1-c1snc(Cl)c1COc1c(F)cc(CCC(=O)O)cc1F` [Cpd 193, 3-(4-[[3-chloro-5-(2-methylphenyl)-1,2-thiazol-4-yl]methoxy]-3,5-difluorophenyl)propanoic acid], the EC50 amounted to 344 nM.
For the compound “3-(4-[[3-(4-ethylphenyl)-5-(trifluoromethyl)-1,2-thiazol-4-yl]methoxy]-1-benzothiophen-7-yl)propanoic acid [Cpd 92]”, the EC50 was determined as 50 nM.
The same measure for “3-(4-[[3-(4-chlorophenyl)-5-(trifluoromethyl)-1,2-thiazol-4-yl]methoxy]-3-methylphenyl)propanoic acid [Cpd 235]”: 50 nM; for `O=C(O)CCc1cc(F)c(OCc2c(-c3ccc(Cl)c(F)c3)nsc2C(F)(F)F)c(F)c1` [Cpd 67, 3-(4-((3-(4-chloro-3-fluorophenyl)-5-(trifluoromethyl)isothiazol-4-yl)methoxy)-3,5-difluorophenyl)propanoic acid]: 25 nM.
The same measure for `Cc1c(CCC(=O)O)ccc(OCc2c(-c3ncc(Cl)cc3F)nsc2C(F)(F)F)c1C` [Cpd 180, 3-(4-((3-(5-chloro-3-fluoropyridin-2-yl)-5-(trifluoromethyl)isothiazol-4-yl)methoxy)-2,3-dimethylphenyl)propanoic acid]: 270 nM.
As for `Cc1ccc(-c2nsc(C(F)(F)F)c2COc2c(F)cc(CC(C)C(=O)O)cc2F)c(F)c1` (stereo not shown) [Cpd 76, 3-(3,5-difluoro-4-[[3-(2-fluoro-4-methylphenyl)-5-(trifluoromethyl)-1,2-thiazol-4-yl]methoxy]phenyl)-2-methylpropanoic acid], the figure is 42 nM; as for `OCCCc1cc(F)c(OCc2c(-c3ccc(Cl)cc3)nsc2C(F)(F)F)c(F)c1` [Cpd 100, 3-(4-[[3-(4-chlorophenyl)-5-(trifluoromethyl)-1,2-thiazol-4-yl]methoxy]-3,5-difluorophenyl)propan-1-ol], 76 nM; as for `CCc1ccc(-c2nsc(C(F)(F)F)c2COc2ccc(CCC(=O)O)c(F)c2F)cc1` [Cpd 73, 3-(4-((3-(4-ethylphenyl)-5-(trifluoromethyl)isothiazol-4-yl)methoxy)-2,3-difluorophenyl)propanoic acid], 41 nM.
On to `O=C(O)CCc1cc(F)c(OCc2c(-c3ccc(Cl)cc3)nsc2C(F)(F)F)c(F)c1` [Cpd 79, 3-(4-[[3-(4-chlorophenyl)-5-(trifluoromethyl)-1,2-thiazol-4-yl]methoxy]-3,5-difluorophenyl)propanoic acid], for which the EC50 amounted to 51 nM.
As for `O=C(O)CCc1cc(F)c(OCc2c(-c3ncc(Cl)cc3F)nsc2C(F)(F)F)c(F)c1` [Cpd 153, 3-(4-((3-(5-chloro-3-fluoropyridin-2-yl)-5-(trifluoromethyl)isothiazol-4-yl)methoxy)-3,5-difluorophenyl)propanoic acid], the figure is 175 nM.
For `O=C(O)CCc1cc(F)c(OCc2c(-c3ccc(Cl)cc3)nsc2C(F)(F)F)c(F)c1F` [Cpd 116, 3-(4-((3-(4-chlorophenyl)-5-(trifluoromethyl)isothiazol-4-yl)methoxy)-2,3,5-trifluorophenyl)propanoic acid], the EC50 worked out at 104 nM.
The same measure for `OCCCc1cc(F)c(OCc2c(-c3ccc4c(c3)OCO4)nsc2C(F)(F)F)c(F)c1` [Cpd 93, 3-(4-[[3-(2H-1,3-benzodioxol-5-yl)-5-(trifluoromethyl)-1,2-thiazol-4-yl]methoxy]-3,5-difluorophenyl)propan-1-ol]: 71 nM; for `O=C(O)CCc1cc(F)c(OCc2c(C3CCCC3)nsc2C(F)(F)F)c(F)c1` [Cpd 71, 3-(4-[[3-cyclopentyl-5-(trifluoromethyl)-1,2-thiazol-4-yl]methoxy]-3,5-difluorophenyl)propanoic acid]: 37 nM; for `Cc1c(CCC(=O)O)ccc(OCc2c(-c3ccccc3)nsc2C(F)(F)F)c1C` [Cpd 134, 3-(2,3-dimethyl-4-[[3-phenyl-5-(trifluoromethyl)-1,2-thiazol-4-yl]methoxy]phenyl)propanoic acid]: 133 nM.
As for `Cc1c(CCC(=O)O)ccc(OCc2sc(F)cc2-c2ccc(Cl)cc2)c1C` [Cpd 3, 3-(4-((3-(4-chlorophenyl)-5-fluorothiophen-2-yl)methoxy)-2,3-dimethylphenyl)propanoic acid], the figure is 49 nM; as for `O=C(O)CCc1cc(F)c(OCc2c(-c3ccc(Cl)c(F)c3)nsc2C(F)(F)F)c(F)c1F` [Cpd 138, 3-(4-((3-(4-chloro-3-fluorophenyl)-5-(trifluoromethyl)isothiazol-4-yl)methoxy)-2,3,5-trifluorophenyl)propanoic acid], 137 nM; as for `OCC#Cc1cc(F)c(OCc2c(-c3ccc(Cl)cc3)nsc2C(F)(F)F)c(F)c1` [Cpd 213, 3-(4-[[3-(4-chlorophenyl)-5-(trifluoromethyl)-1,2-thiazol-4-yl]methoxy]-3,5-difluorophenyl)prop-2-yn-1-ol], 603 nM.
As to `OCCCc1ccc(OCc2c(Cl)nsc2-c2ccc(Cl)cc2)c(F)c1F` [Cpd 102, 3-(4-((3-chloro-5-(4-chlorophenyl)isothiazol-4-yl)methoxy)-2,3-difluorophenyl)propan-1-ol], the EC50 is 78 nM.
The same measure for `O=C(O)CCc1c(F)c(F)c(OCc2c(-c3ccc(Cl)cc3)nsc2C(F)(F)F)c(F)c1F` [Cpd 152, 3-(4-((3-(4-chlorophenyl)-5-(trifluoromethyl)isothiazol-4-yl)methoxy)-2,3,5,6-tetrafluorophenyl)propanoic acid]: 173 nM; for `Cc1ccc(-c2nsc(C(F)(F)F)c2COc2c(F)cc(CCC(=O)O)cc2F)c(F)c1` [Cpd 65, 3-(3,5-difluoro-4-[[3-(2-fluoro-4-methylphenyl)-5-(trifluoromethyl)-1,2-thiazol-4-yl]methoxy]phenyl)propanoic acid]: 13 nM; for `CCc1ccc(-c2cc(F)sc2COc2ccc(CCC(=O)O)c(C)c2C)cc1` [Cpd 1, 3-(4-[[3-(4-ethylphenyl)-5-fluorothiophen-2-yl]methoxy]-2,3-dimethylphenyl)propanoic acid]: 24 nM.
As for `O=C(O)CCc1cc(F)c(OCc2c(-c3ccc(Cl)cc3F)nsc2C(F)(F)F)c(F)c1` [Cpd 74, 3-(4-((3-(4-chloro-2-fluorophenyl)-5-(trifluoromethyl)isothiazol-4-yl)methoxy)-3,5-difluorophenyl)propanoic acid], the figure is 42 nM.
As for `CC(Cc1cc(F)c(OCc2c(-c3ccc(Cl)cc3)nsc2C(F)(F)F)c(F)c1)C(=O)O` (stereo not shown) [Cpd 108, 3-(4-[[3-(4-chlorophenyl)-5-(trifluoromethyl)-1,2-thiazol-4-yl]methoxy]-3,5-difluorophenyl)-2-methylpropanoic acid], the EC50 was determined as 89 nM.
As for `Cc1c(CCC(=O)O)ccc(OCc2c(-c3ccc(Cl)cc3)nsc2C(F)(F)F)c1C` [Cpd 142, 3-(4-((3-(4-chlorophenyl)-5-(trifluoromethyl)isothiazol-4-yl)methoxy)-2,3-dimethylphenyl)propanoic acid], the figure is 155 nM; as for `CCc1ccc(-c2snc(Cl)c2COc2ccc(CCC(=O)O)c(C)c2C)cc1` [Cpd 85, 3-(4-[[3-chloro-5-(4-ethylphenyl)-1,2-thiazol-4-yl]methoxy]-2,3-dimethylphenyl)propanoic acid], 56 nM; as for “3-(4-[[3-(4-ethylphenyl)-5-(trifluoromethyl)-1,2-thiazol-4-yl]methoxy]-3,5-difluorophenyl)propanoic acid [Cpd 70]”, 30 nM.
As for `OCCCc1cc(F)c(OCc2c(-c3ccc4c(c3)OCO4)csc2C(F)(F)F)c(F)c1` [Cpd 37, 3-(4-((4-(benzo[d][1,3]dioxol-5-yl)-2-(trifluoromethyl)thiophen-3-yl)methoxy)-3,5-difluorophenyl)propan-1-ol], the figure is 94 nM.
